Experimental data reported in article PMC8948829, “The Escherichia coli Amino Acid Uptake Protein CycA: Regulation of Its Synthesis and Practical Application in L-Isoleucine Production” (Microorganisms, 2022).

Target: T1, CycA (Escherichia coli, UniProt P0AAE0)
T1 construct: full-length native 470 aa inner-membrane permease, chromosomal cycA overexpressed from PL promoter (strain M1, MG1655 cat-PL-cycA), whole cells
T1 sequence (P0AAE0 1-470): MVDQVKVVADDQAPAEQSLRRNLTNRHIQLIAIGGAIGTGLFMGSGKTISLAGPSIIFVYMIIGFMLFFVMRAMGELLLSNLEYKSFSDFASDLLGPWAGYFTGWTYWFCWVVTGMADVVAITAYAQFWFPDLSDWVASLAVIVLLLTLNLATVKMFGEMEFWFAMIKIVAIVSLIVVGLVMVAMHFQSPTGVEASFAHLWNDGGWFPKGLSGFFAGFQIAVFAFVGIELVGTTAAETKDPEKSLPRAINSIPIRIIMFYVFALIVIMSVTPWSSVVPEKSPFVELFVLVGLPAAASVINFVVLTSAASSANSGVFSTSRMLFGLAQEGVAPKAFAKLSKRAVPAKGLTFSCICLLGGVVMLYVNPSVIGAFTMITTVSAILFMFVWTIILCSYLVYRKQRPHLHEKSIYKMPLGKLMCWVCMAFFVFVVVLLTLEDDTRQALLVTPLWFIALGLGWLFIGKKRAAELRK
Test: amino acid uptake (extracellular depletion), cycA-overexpressing versus wild-type cells
Format: cell-based
Details: 50 mM, N-free M9 medium, 37 °C, 6 h; other native importers intact

| SMILES | uptake rate |
| --- | --- |
| CC[C@H](N)C(=O)O [AABA] | the uptake rate was higher in the case of the M1 strain, especially for Ala and AABA |
| C[C@H](N)C(=O)O [Ala] | the uptake rate was higher in the case of the M1 strain, especially for Ala and AABA |
